The record followed here is ChEMBL document CHEMBL1128894, “Enzymatic cyclization of nicotinamide adenine dinucleotide phosphate (NADP)” (Bioorg Med Chem Lett, 1995).

In general, EC50 refers to the concentration giving half of the maximal effect.

For the assay, the species on record is Rattus norvegicus. The experiment in a line: Effective concentration for calcium mobilization (Ca 2+ release) in rat brain microsomes. It counts as functional. A general note: A change in cytosolic calcium serves as a functional read-out for many receptors and channels.
For `N=c1c2ncn3c2ncn1[C@@H]1O[C@H](COP(=O)(O)OP(=O)(O)OC[C@H]2OC3[C@H](O)[C@@H]2O)[C@@H](O)[C@H]1O`, the EC50 was determined as 22 µM. On to `N=c1c2ncn3c2ncn1[C@@H]1O[C@H](COP(=O)(O)OP(=O)(O)OC[C@H]2O[C@@H]3[C@H](OP(=O)(O)O)[C@@H]2O)[C@@H](O)[C@H]1O`, for which the EC50 was found to be 9.2 µM. Consider `O=P(O)(O)O[C@@H]1[C@H](O)[C@H](O)[C@@H](OP(=O)(O)O)[C@H](OP(=O)(O)O)[C@H]1O` [INS(1,4,5)P3], for which the EC50 came to 0.1 µM.
